Earlier results, collected in patent publication US10603329B2 (INDENA S.P.A., priority 2006, dated 2020).

Test system: cancer cells
Conditions: in vitro; read-out: IC50, growth of cancer cells

## COc1cc(C=CC(=O)CC(=O)C=Cc2ccc(O)c(OC)c2)ccc1O [curcumin, 1,7-bis(4-hydroxyl-3-methoxyphenyl)-1,6-heptadiene-3,5-dione]
  IC50: 20 to 75 µM
